We go through three compounds from patent US20240216304A1, “CAPSAICIN AND TRPV1 MODULATOR COMPOSITIONS AND METHODS OF USE THEREOF” (The Children's Hospital of Philadelphia, priority 2020, published 2024).

One series deals with T1, TRPV1 (Homo sapiens, UniProt Q8NER1).
T1 construct: TRPV1 primary signaling in Human dorsal root ganglia (DRG) neurons in culture; endogenous in cells; host or cells: human dorsal root ganglia (DRG) neurons in culture
The series is described as follows: Capsaicinoid-induced TRPV1 signaling in DRG neurons, Fluo-8 calcium imaging. Type of series: cell-based. Particulars: for treated neurons responding: agonist alone. The text has this: The aim of this study was to evaluate the effects of oleic acid on antagaonizing capsaicinoid-induced TRPV1 primary signaling in Human dorsal root ganglia (DRG) neurons in culture. Human DRG neurons were studied in a perfusion system using the calcium dye Fluo-8. Detection of intracellular calcium transients was accomplished by measuring the changes in the fluorescence intensity of the Fluo-8 calcium indicator upon excitation at 480 nm and recording of the emitted signal at 520 nm using a pcoEDGE sCMOS camera mounted on an inverted microscope (Olympus IX71). The following protocol was utilized to study the effects of the fatty acids on capsaicin and DHC-stimulated calcium currents.

The next series concerns Diabetic Mice. The series is described as follows: Capsaicinoid-fatty acid combinations on glucose tolerance and insulin sensitivity in diabetic mice. It is filed as in vivo. The note with it: administered in the absence of OA (capsaicin 5 mg/kg, DHC 1 mg/kg); groups discontinued after first 72 hours (6 doses). Here is the method:
Eighty-four male db db mice (BKS. CG-Dock7m+/+LeprdbJ) are randomized at 8 weeks of age to produce seven equivalent groups (n=12/group) with respect to 4-hour fasting glucose and body weight. Treatment groups are as follow: Control (untreated); Capsaicin (5 mg/kg)+OA (615 mg/kg); DHC (1 mg/kg)+OA (615 mg/kg); capsaicin (10 mg/kg)+OA (615 mg/kg); DHC (10 mg/kg)+OA (615 mg/kg); capsaicin (5 mg/kg); DHC (1 mg/kg). Animals are administered the formulations via oral gavage in a volume of 5 mL/kg) twice daily for 28 days. Blood glucose is measured following a four hour fast on days 0, 7, 14, 21 and 28. On day 28, an oral glucose tolerance test (OGTT) is performed following a four-hour fast. Glucose (1.2 g/kg) is dosed at […], and glucose and insulin are measured at t=−60 minutes, 0, 15, 30, 60, 120, 180 and 240 minutes.

T1 sequence (Q8NER1 whole entry): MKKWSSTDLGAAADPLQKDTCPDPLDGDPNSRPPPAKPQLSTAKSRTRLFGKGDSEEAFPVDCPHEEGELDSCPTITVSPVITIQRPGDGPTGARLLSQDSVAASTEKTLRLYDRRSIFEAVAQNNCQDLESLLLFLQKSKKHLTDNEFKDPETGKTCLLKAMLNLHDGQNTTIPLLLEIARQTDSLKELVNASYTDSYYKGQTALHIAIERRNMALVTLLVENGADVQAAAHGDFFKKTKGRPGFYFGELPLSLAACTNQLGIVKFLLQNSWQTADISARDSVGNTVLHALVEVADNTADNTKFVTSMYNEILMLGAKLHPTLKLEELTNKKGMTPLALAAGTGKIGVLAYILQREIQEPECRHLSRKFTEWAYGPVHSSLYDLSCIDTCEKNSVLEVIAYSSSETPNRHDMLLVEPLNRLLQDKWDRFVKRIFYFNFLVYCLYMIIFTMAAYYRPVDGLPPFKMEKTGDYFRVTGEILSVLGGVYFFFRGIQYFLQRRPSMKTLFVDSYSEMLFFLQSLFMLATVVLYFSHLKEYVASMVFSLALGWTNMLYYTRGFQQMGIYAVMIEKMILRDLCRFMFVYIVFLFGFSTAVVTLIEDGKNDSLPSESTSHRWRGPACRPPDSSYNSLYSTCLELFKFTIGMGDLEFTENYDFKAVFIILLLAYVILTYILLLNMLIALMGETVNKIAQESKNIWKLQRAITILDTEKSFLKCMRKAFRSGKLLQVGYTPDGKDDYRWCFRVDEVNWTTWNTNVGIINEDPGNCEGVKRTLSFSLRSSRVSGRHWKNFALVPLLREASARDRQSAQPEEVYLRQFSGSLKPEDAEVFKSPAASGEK

Take `CCCCCCCC/C=C\CCCCCCCC(=O)O` [oleic acid]: the “maximal calcium (ΔF/F0) signal” value on TRPV1 (DHC as agonist, with oleic acid administration) is recorded as 2.81. Also, the neurons responding on TRPV1 (DHC as agonist, with oleic acid administration (DHC alone 59%)) is recorded as 38%; at TRPV1 (capsaicin as agonist, with oleic acid administration (capsaicin alone 74%)), 51%.

`COc1cc(CNC(=O)CCCCCCC(C)C)ccc1O` [DHC, dihydrocapsaicin]: on TRPV1 (DHC alone), the “maximal calcium (ΔF/F0) signal” value is 4.57. Besides, the treated neurons responding on TRPV1 is recorded as 59%. In addition, in the series with Diabetic Mice, the tolerability result is recorded as “poorly tolerated”.

`COc1cc(CNC(=O)CCCC/C=C/C(C)C)ccc1O` [capsaicin, (6E)-N-[(4-Hydroxy-3-methoxyphenyl)methyl]-8-methylnon-6-enamide]: the treated neurons responding at TRPV1 is on record as 74%. Also, the tolerability entry in the series with Diabetic Mice is “poorly tolerated”.
